# Experimental data as given in patent publication US11007355B2 (TARIS Biomedical LLC, priority 2012, dated 2021).
# Values joined by “and” are separate entries in the source; they are usually repeats but may differ in a detail not shown here. Equal entries are not always repeated. “Also recorded” adds a separate entry of the source. Where two headings read alike, the source gives them in different places.
# Key:
# male Sprague Dawley rats [1] = experiment: Bladder tolerability in rats: clinical observations during perfusion and tissue observations at necropsy (Example 1); format: in vivo, rat
# Experimental: For each drug, each test group included three male rats. The perfusate drug concentration was set to 0.3 mg/mL and the perfusion rate used was 300 μL/hour over the test periods.
# Perfusion solutions were prepared by dissolving each drug substance into an appropriate volume of saline. The finals doses administered are summarized below.
# [2] = Platinum content of blood, urine and terminal tissues by ICP-MS after bladder perfusion or IV bolus (Example 1); format: in vivo, rat
# male Sprague Dawley rats [3] = settings: 72-hour bladder perfusion
# Experimental: (§1) Blood, urine, and tissue samples were collected and analyzed for drug content.
# (§2) The perfusate formulation concentration was 0.308 mg/mL. Dose (mg/kg) was calculated as (Dose administered (g) x formulation concentration (mg/mL))/Animal Wt. (kg). The drug solutions were dosed over a 72-hour period into the non-fasted animal's bladder by intra-urinary bladder cannula using an infusion pump.
# (§3) Whole blood samples were taken via tailnick or jugular vein cannula at the following time points following the start of perfusion: 0, 4, 8, 24, and 48 hours. Urine was collected pre-dose and for 0-24, 24-48, and 48-72-hour periods post dose.
# (§4) Following the 72-hour infusion period the animals were sacrificed, terminal blood samples were taken via the abdominal aorta, and bladder, prostate, ureter, and kidney tissues were collected, weighed, and visually inspected for evidence of tolerability/reaction from exposure to the drug.
# [4] = Oxaliplatin tissue permeability: platinum in blood, urine and tissues after 72-hour bladder perfusion (Example 2)
# Experimental: as §1, §2, §3, §4
# [5] = Group 1: 24-hr bladder perfusion, 0.3 mg/mL
# [6] = Group 2: 72-hr bladder perfusion, 0.3 mg/mL
# [7] = Group 4: IV bolus with saline perfusion via cannula
# [8] = 0.308 mg/mL, individual animals 47, 48, 49
structure (smiles),measurement,setting,value
N.N.O=C([O-])C1(C(=O)[O-])CCC1.[Pt+2] [carboplatin],Tissue Observations at Necropsy: bladder lumen erythemic discoloration (grade),male Sprague Dawley rats [1]; [5],Bladder lumen: slight to mild
same,"Tissue Observations at Necropsy: erythemic discoloration, share of lumen",male Sprague Dawley rats [1]; [5],10-30 % of lumen
same,Tissue Observations at Necropsy: evidence of tissue edema/thickened bladder walls,male Sprague Dawley rats [1]; [5],no
same,Clinical Observations of note during Perfusion,"male Sprague Dawley rats [1]; Group 1: 24-hr perfusion via cannula to bladder dome, 0.3 mg/mL, 300 μL/hour, 3 male rats",Normal
same,Tissue Observations at Necropsy: bladder lumen erythemic discoloration (grade),male Sprague Dawley rats [1]; [6],Bladder lumen: slight to mild
same,"Tissue Observations at Necropsy: erythemic discoloration, share of lumen",male Sprague Dawley rats [1]; [6],10-30 % of lumen
same,Tissue Observations at Necropsy: evidence of tissue edema/thickened bladder walls,male Sprague Dawley rats [1]; [6],no
same,Clinical Observations of note during Perfusion,"male Sprague Dawley rats [1]; Group 2: 72-hr perfusion via cannula to bladder dome, 0.3 mg/mL, 300 μL/hour, 3 male rats",Normal
same,Tissue Observations at Necropsy: bladder lumen erythemic discoloration (grade),male Sprague Dawley rats [1]; [7],Bladder lumen: slight generalized
same,"Tissue Observations at Necropsy: erythemic discoloration, share of lumen",male Sprague Dawley rats [1]; [7],"erythemic discoloration, 5-10% of lumen"
same,Clinical Observations of note during Perfusion,"male Sprague Dawley rats [1]; Group 4: IV bolus with saline perfusion via cannula, 3 male rats",Red tinted urine
same,Appearance of animals during perfusion period,"male Sprague Dawley rats [1]; all dosed animals (Groups 1, 2, 4)",all animals appeared normal
same,Bladder tolerability and tissue permeability criteria (overall),"male Sprague Dawley rats [1]; bladder perfusion, Example 1",meet only one or other of these criteria
same,Blood profile (platinum),"[2]; IV bolus, FIG. 8",significant peak systemic platinum exposure followed by a sharp decay
same,Amount in the IV bolus terminal phase as compared with cisplatin,"[2]; IV bolus, blood",one quarter less
same,Therapeutic tissue platinum concentrations by intravesical perfusion,[2]; bladder perfusion 0.3 mg/mL,does not achieve therapeutic tissue platinum concentrations
same,"Observed plasma levels (blood profile, platinum)","[2]; bladder perfusion groups, FIG. 8",near the limit of the assay detection (twice the limits of detection) to below the quantitation limit
same,Tissue levels (terminal platinum concentrations) compared with cisplatin,"[2]; bladder perfusion, FIG. 9",consistently less than those observed following cisplatin bladder perfusion
same,Bladder tissue concentrations relative to IC50,"[2]; bladder perfusion, terminal bladder tissue",below the IC50 of carboplatin
N.N.[Cl][Pt][Cl] [cisplatin],Clinical Observations of note during Perfusion,"male Sprague Dawley rats [1]; rat, in vivo, iv",Normal
same,Tissue Observations at Necropsy (overall),"male Sprague Dawley rats [1]; rat, in vivo, iv",No observations
same,"Bladder platinum concentrations, 72 hr perfusions compared to 24 hr perfusions","[2]; rat, in vivo",Significantly higher and more variable
same,"Blood profile (platinum, whole blood)","[2]; rat, in vivo",rising blood levels
O=C1[O][Pt]2([NH][C@@H]3CCCC[C@H]3[NH]2)[O]C1=O [oxaliplatin],Appearance of animals throughout the study,male Sprague Dawley rats [3]; 0.308 mg/mL,All animals appeared normal
same,Observations at necropsy: erythemia (animal 48: erythemia and edema) on inside wall of bladder associated with the bladder cannula,"male Sprague Dawley rats [3]; 0.308 mg/mL, individual animals 47, 48",bladder associated with the bladder cannula mild; also recorded: bladder associated with the bladder cannula moderate
same,Observations at necropsy: erythemia of bladder surface (grade),male Sprague Dawley rats [3]; [8],Slight erythemia; also recorded: Slight erythemic
same,"Observations at necropsy: erythemia, share of surface",male Sprague Dawley rats [3]; [8],20 % of surface (2×) and < 5 % of surface
same,Bladder tolerability and tissue permeability criteria (overall),male Sprague Dawley rats [3]; Example 2,both bladder tolerability and tissue permeability
same,"Blood and kidney platinum concentrations, in contrast to cisplatin",[4]; 72-hour bladder perfusion,Comparatively low
same,Bladder platinum concentrations compared to cisplatin and carboplatin,"[4]; 72-hour bladder perfusion, FIGS. 12A-12B",significant platinum bladder concentrations
same,Platinum concentration in the kidney or prostate,"[4]; 72-hour bladder perfusion, terminal tissues",No appreciable platinum concentration
same,Blood concentrations (blood profile) compared with cisplatin and carboplatin,"[4]; 72 hour bladder perfusion, FIG. 10",fell between cisplatin and carboplatin
